Test results: paper PMC10700139 (Nature, 2023)
“And” between values parts separate entries of the source, which are not always exact repeats. Equal entries are not always repeated.

Legend:
[1] = Stability of isolated 9 in deuterated solvents (1H NMR, LC-MS); format: physicochemical; details: resuspended in CDCl3 or CD3OD, 1H NMR over time
Method: Also, on drying of our sample from CDCl3, we noted a colour change from yellow/brown to red. Loss of our compound was confirmed through LC–MS analysis. However, we observed that during the course of purification, a compound pertaining to an oxidation of 9 ([…]; equal to 9 + oxygen) accumulated to high concentrations. […] As such, we purified this compound using the same strategy outlined above (yield of about 3 mg) and determined a putative structure (proposed 9′) through NMR analysis. For 9′, deuterated ACN (CD3CN) was used as a solvent and spectra were collected on a Varian Inova 600 MHz NMR spectrometer at room temperature (Supplementary Figs. 12–18).

[2] = biological target: T1, PtCAL-1a/PtCAL-2a (Phlegmariurus tetrastichus, UniProt P0DXL1+P0DXL3); assay: In vitro reactions with apoplastic PtCAL-1a/PtCAL-2a (formation of 9, decarboxylation of 3, Zn chelator); format: biochemical
T1 construct: N-terminal signal peptide[58], which would be cleaved during processing and trafficking of these proteins; made in house; host or cells: Nicotiana benthamiana leaves (Agrobacterium transient co-expression, pEAQ-HT), concentrated apoplast extract
T1 sequence (P0DXL1 22-280): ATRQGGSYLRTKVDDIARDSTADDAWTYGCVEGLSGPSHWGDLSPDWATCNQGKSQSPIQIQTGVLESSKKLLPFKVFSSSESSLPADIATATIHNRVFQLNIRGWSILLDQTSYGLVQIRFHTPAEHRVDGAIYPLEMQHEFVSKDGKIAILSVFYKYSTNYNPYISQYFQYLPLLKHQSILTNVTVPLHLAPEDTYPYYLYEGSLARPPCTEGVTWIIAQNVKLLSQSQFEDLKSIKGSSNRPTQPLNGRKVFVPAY
T1 sequence (P0DXL3 24-284): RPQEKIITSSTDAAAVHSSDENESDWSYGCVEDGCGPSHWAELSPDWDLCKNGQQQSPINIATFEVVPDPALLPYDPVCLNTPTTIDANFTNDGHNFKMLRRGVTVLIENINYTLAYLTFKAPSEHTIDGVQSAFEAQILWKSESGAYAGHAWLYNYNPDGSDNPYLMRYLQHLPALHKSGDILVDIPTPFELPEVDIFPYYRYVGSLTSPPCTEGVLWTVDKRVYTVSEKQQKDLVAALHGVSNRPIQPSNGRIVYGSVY
Description: The three CAL proteins identified in this study have predicted N-terminal signal peptides, which were identified using the TargetP-2.0 server (https://services.healthtech.dtu.dk/service.php?TargetP-2.0)[58]. […] To assess this possibility, CAL genes with or without C-terminal 6xHis tags were transiently expressed in N. benthamiana, as described above. Each CAL gene was expressed individually; also, PtCAL-1a and PtCAL-2a were transiently co-expressed in the same leaf because we had found them to cofunction in Lycopodium alkaloid biosynthesis. At 4 days after Agrobacterium infiltration, apoplast protein extracts were isolated using the infiltration–centrifugation method, much as previously described. Two leaves per reaction were excised from the plant and submerged in ice-cold apoplast extraction buffer (100 mM MES, 300 mM NaCl, pH 5.5) in an open-capped 50 ml Falcon tube and these tubes were placed in a plastic vacuum chamber attached to a Welch Model 2025 vacuum pump. The chamber was brought down to full vacuum and after 2 min at this pressure, the vacuum was slowly released to allow for buffer to infiltrate the leaf apoplastic space. Buffer-infiltrated leaves were carefully removed from the Falcon tubes, blotted dry with paper towels and were then rolled into Parafilm and placed in a plungerless 5 ml plastic syringe. The syringe was placed in a 15 ml Falcon tube and this was then centrifuged at 1,000g and 4 °C for 10 min to collect apoplast extract. The resulting extract was centrifuged at 10,000g and 4 °C for 15 min to pellet any larger cellular debris and the supernatant was concentrated using an Amicon Ultra-4 Centrifugal Filter Unit (10 kDA MWCO, MilliporeSigma UFC501024). Protein concentrations were measured using the BIO-RAD Protein Assay or Bradford assay (Abcam 119216) and adjusted with apoplast extraction buffer to a final concentration between 0.5 and 1.5 mg ml^−1. Aliquots of the extracts were snap frozen in liquid nitrogen and stored at −80 °C.
Reactions with CAL-enriched apoplast were routinely performed in low-pH potassium phosphate buffer (50 mM potassium phosphate, 100 mM NaCl, pH 5.9) at a volume of 20 µl. For PtCAL-1a/PtCAL-2a, these reactions contained approximately 1.4 µg of apoplast protein for each CAL (final concentration of 0.07 µg µl^−1). Control reactions used apoplast from leaves expressing only one CAL or with apoplast generated from GFP-expression N. benthamiana leaves. The requisite substrates for this reaction were generated through the activities of in vitro PtPIKS-1 and PtCYP782C1 enzyme reactions. […]. To generate 3 and 4 as potential substrates, 1 µg of previously purified PtPIKS-1 enzyme[23] and 150 µM 1 and 300 µM malonyl-CoA were added directly to the CAL reaction mixtures. After thorough mixing, reactions were incubated at room temperature. An alternative route for producing 3 and 4 independently of thioester intermediates was achieved by mixing stocks of 1 (10 mM in water) and 2 (10 mM in water; always prepared fresh to minimize compound decomposition) in equal proportion, followed by incubation at room temp for 1–2 h, as these two substrates can non-enzymatically condense to yield 3 (which can spontaneously decarboxylate to produce 4). A 2 µl aliquot of this mixture was then added as a component of the PtCAL-1a/PtCAL-2a enzyme reaction (20 µl total reaction volume) in addition to the PtCYP782C1 microsomal reaction mixture. After predesignated incubation times, reactions were quenched by diluting tenfold into ACN with 0.1% formic acid.
To evaluate the potential decarboxylation of β-keto acid substrates by PtCAL-1/PtCAL-2 and PtCAL-3, only 3 or 2, respectively, were added as substrate. PtCAL-1/PtCAL-2 reactions were quenched by diluting aliquots tenfold into ACN with 0.1% formic acid and were subsequently analysed through HILIC LC–MS. PtCAL-3 reactions were quenched by mixing aliquots with an equal volume of water with 0.2% formic acid and were then analysed through C18 LC–MS. […]

Structure (SMILES): CC1CC2=NCCCC2=C(CC2CCCCN2)C1 (centres unmarked) [compound 9]
- stability of isolated compound [1]: relatively unstable
- ion abundance of 9 (m/z 164.1434) over time ([2]; PtCAL-1a/PtCAL-2a +3, +8, +PDCA, +Zn, 0.5 hrs (ED 4i)): 127782 and 135642 and 127803
- ion abundance of 9 (m/z 164.1434) over time ([2]; PtCAL-1a/PtCAL-2a +3, +8, +PDCA, +Zn, 2 hrs (ED 4i)): 473171 and 458012 and 448492
- ion abundance of 9 (m/z 164.1434) over time ([2]; PtCAL-1a/PtCAL-2a +3, +8, +PDCA, +Zn, 6 hrs (ED 4i)): 1066834 and 1174532 and 1104641
- ion abundance of 9 (m/z 164.1434) over time ([2]; PtCAL-1a/PtCAL-2a +3, +8, +PDCA, +Zn, 24 hrs (ED 4i)): 1783309 and 1828274 and 1979732
- ion abundance of 9 (m/z 164.1434) over time ([2]; PtCAL-1a/PtCAL-2a +3, +8, +PDCA, 0.5 hrs (ED 4i)): 126896 and 128709 and 118410
- ion abundance of 9 (m/z 164.1434) over time ([2]; PtCAL-1a/PtCAL-2a +3, +8, +PDCA, 2 hrs (ED 4i)): 460080 and 448051 and 514634
- ion abundance of 9 (m/z 164.1434) over time ([2]; PtCAL-1a/PtCAL-2a +3, +8, +PDCA, 6 hrs (ED 4i)): 1133647 and 1079904 and 1109219
- ion abundance of 9 (m/z 164.1434) over time ([2]; PtCAL-1a/PtCAL-2a +3, +8, +PDCA, 24 hrs (ED 4i)): 1692906 and 1937168 and 1863327
- ion abundance of 9 (m/z 164.1434) over time ([2]; PtCAL-1a/PtCAL-2a +3, +8, 0.17 hrs): 5042 and 4513 and 5355
- ion abundance of 9 (m/z 164.1434) over time ([2]; PtCAL-1a/PtCAL-2a +3, +8, 0.5 hrs (ED 4i)): 123276 and 137673 and 112913
- ion abundance of 9 (m/z 164.1434) over time ([2]; PtCAL-1a/PtCAL-2a +3, +8, 2 hrs (ED 4i)): 446630 and 485400 and 412047
- ion abundance of 9 (m/z 164.1434) over time ([2]; PtCAL-1a/PtCAL-2a +3, +8, 6 hrs (ED 4i)): 1143938 and 1142219 and 1013243
- ion abundance of 9 (m/z 164.1434) over time ([2]; PtCAL-1a/PtCAL-2a +3, +8, 8.00 hrs): 777915 and 631565 and 1080330
- ion abundance of 9 (m/z 164.1434) over time ([2]; PtCAL-1a/PtCAL-2a +3, +8, 20.00 hrs): 2280194 and 1799167 and 2350932
- ion abundance of 9 (m/z 164.1434) over time ([2]; PtCAL-1a/PtCAL-2a +3, +8, 24.00 hrs): 2573277 and 1958546 and 2242168
- ion abundance of 9 (m/z 164.1434) over time ([2]; PtCAL-1a/PtCAL-2a +3, +8, 24 hrs (ED 4i)): 1814580 and 1825623 and 1787378
- ion abundance of 9 (m/z 164.1434) over time ([2]; PtCAL-1a/PtCAL-2a +3, +8, +PtCAL-3, 0.17 hrs): 8935 and 8139 and 7454
- ion abundance of 9 (m/z 164.1434) over time ([2]; PtCAL-1a/PtCAL-2a +3, +8, +PtCAL-3, 0.50 hrs): 15312 and 11348 and 14678
- ion abundance of 9 (m/z 164.1434) over time ([2]; PtCAL-1a/PtCAL-2a +3, +8, +PtCAL-3, 2.00 hrs): 132103 and 73247 and 110763
- ion abundance of 9 (m/z 164.1434) over time ([2]; PtCAL-1a/PtCAL-2a +3, +8, +PtCAL-3, 4.00 hrs): 477805 and 480278 and 470081
- ion abundance of 9 (m/z 164.1434) over time ([2]; PtCAL-1a/PtCAL-2a +3, +8, +PtCAL-3, 8.00 hrs): 1471863 and 934058 and 1569447
- ion abundance of 9 (m/z 164.1434) over time ([2]; PtCAL-1a/PtCAL-2a +3, +8, +PtCAL-3, 24.00 hrs): 2382612 and 1957618 and 2845113
